# Reference: patent US6037332A, “Method of urinary bladder instillation” (Emory University, priority 1997, dated 2000)
# What was measured:
# [1] = system: MNU induced bladder tumors; settings: intravesical, Fisher 344 rats; Graham et al. 1995; cited from earlier work
# T24 cells = experiment: Proliferation of human transitional cell carcinoma cultures (crystal violet, A540 ratio day one/day eight); assay type: cell-based; settings: 10 mM dextran sulfate; day eight; p<0.0001
# Description: Method: Cultures of two urothelial carcinoma cell lines, HT 1376 and T24 were obtained from the American Type Culture Collection and propagated in Dulbecco's Modified Eagles Medium (DMEM) supplemented with 10% fetal bovine serum (FBS). The HT1376 and T24 cells were plated into 96 well polystyrene trays in 0.1 ml of medium at densities of 5000 and 2500 cells/wells respectively. After overnight incubation, medium was replaced with DMEM containing various FBS and dextran sulfate concentrations. Each FBS and dextran sulfate concentration was tested in quadruplicated wells. On day eight the cells were fixed with glutaraldehyde, stained with 0.1% crystal violet and absorbance at 540 nm was quantitated in a (Bio-Rad) microplate spectrophotometer.
# Results: The ratio of A540 values in day one and day eight was used to indicate cell proliferation.
# [2] = system: MNU-induced rat bladder transitional cell carcinoma
# Description: (1972) and modified by Steinberg, et al. (1990). Animals: Four to five week old female Fisher 344 rats (avg. Wt. 200 g) were used in all cohorts on this trial. All animals received 5 mg/200 g body weight intraperitoneal gentamicin (50 mg/ml) as antibacterial prophylaxis one hour prior to each bladder catheterization. MNU dose and schedule: 100 mg of MNU (Sigma, St. Louis, Mo.) were dissolved in 10 ml of sodium acetate (CH3 COONa), pH of a solution=6.5. Five mg/200 g body weight of this solution (0.5 ml) was instilled intravesically via a 22-gauge teflon angiocatheter under a continuous flow hood within 45 minutes of preparing the MNU solution every other week for a total of 4 doses (8 weeks). […] (Mol. Wt. 8000 Da.-Sigma, St. Louis, Mo.) Beginning at week four, 20 of the animals received intravesical dextran sulfate, 10 mg/200 g body weight twice a week for four weeks. The remaining 20 animals received saline on the same schedule. Tissue Preparations: The urinary bladder were excised, filled and fixed with 10% neutral buffered formalin, and then embedded in paraffin. The bladders were sectioned every 2 mm and 5-micron sections were stained with hematoxylin and eosin.
# [3] = system: human urinary bladder carcinoma cells; settings: Sorimachi et al. 1992; cited from earlier work
# [4] = system: epidermal growth factor (EGF) binding to T24 cells; experiment: 125I-EGF growth factor receptor binding to T24 cells; set-up: species or system human
# Description: Method: Growth factor receptor binding studies were performed using T24 high grade human bladder tumor cell line. Cells were incubated with […] ^125 I-Insulin like growth factor-1 (^125 I-IGF-1) or ^125 I-epidermal growth factor (^125 I-EGF) and varying concentration of unlabeled growth factor or dextran sulfate in 1 ml of binding assay buffer. After incubation at 4° C. for 10 to 12 hours, the assay buffer was removed and the cultures washed three times. The cells and receptor-bound growth factors were then solubilized in 1 ml of […] before being quantitated in a gamma radiation counter.
compound,measurement,setting,value
Cc1ccc(C(=O)Nc2ccc(S(=O)(=O)O)c3cc(S(=O)(=O)O)cc(S(=O)(=O)O)c23)cc1NC(=O)c1cccc(NC(=O)Nc2cccc(C(=O)Nc3cc(C(=O)Nc4ccc(S(=O)(=O)O)c5cc(S(=O)(=O)O)cc(S(=O)(=O)O)c45)ccc3C)c2)c1 [Suramin],in-vivo action on MNU induced bladder tumors,[1],intravesical inhibition of MNU induced bladder tumors
dextran sulfate,T24 cell proliferation inhibition,T24 cells,completely inhibited
same,prevention of development of transitional cell carcinoma of the bladder,"[2]; intravesical, 10 mg/200 g body weight twice a week for four weeks, from week four",effectively prevents the development of transitional cell carcinoma of the bladder
same,side effects or histopathologic changes in urinary bladders,"[2]; rat, in vivo",did not cause any significant side effects or histopathologic changes
same,inhibitory effect on growth of human urinary bladder carcinoma cells in culture,[3],failed to observe an inhibitory effect
same,EGF binding,[4]; dextran sulfate 10 mM,115 % of control
same,EGF binding,[4]; dextran sulfate 1-2 mM,80 % of control binding
